Earlier results on 1 compound are cited in patent publication US20050009848A1, “Use of antivirals against inflammatory bowel diseases” (ICN Pharmaceuticals Switzerland Ltd., priority 2003, published 2005).

For this data set the following is noted: one patient with Crohn's disease, HSV-I and HSV-II DNA detected in intestinal mucosa; acyclovir co-used with classical mesalazin-corticosteroid therapy.

For `Nc1nc2c(ncn2COCCO)c(=O)[nH]1` [acyclovir], the “morphological and clinical findings” value is “changed the morphological and clinical findings decisively”.
